Source: paper PMC4594013 (Frontiers in Pharmacology, 2015)
“And” between values parts separate entries of the source, which are not always exact repeats. Equal entries are not always repeated. Structures can show the parent of a compound that is named as a salt. Where two headings read alike, the source gives them in different places.

What was measured:
OAT2-tv1 [1] = molecular target: T1, OAT2-tv1 (Homo sapiens, UniProt Q9Y694); assay: Inhibition of [3H]penciclovir uptake into CHO-OAT2-tv1 cells; type: cell-based; conditions: 5 min; for IC50 / % Inhibition: room temperature; for % Inhibition: inhibition of [3H]penciclovir uptake by CHO-OAT2-tv1 cells at the maximum concentration of test compound (Table 2, c1); for cis-inhibition of penciclovir uptake: CHO-OAT2-tv1 cells, test compound 1 mM, [3H]penciclovir ∼30 nM
T1 sequence (Q9Y694 1-546 isoform Q9Y694-2): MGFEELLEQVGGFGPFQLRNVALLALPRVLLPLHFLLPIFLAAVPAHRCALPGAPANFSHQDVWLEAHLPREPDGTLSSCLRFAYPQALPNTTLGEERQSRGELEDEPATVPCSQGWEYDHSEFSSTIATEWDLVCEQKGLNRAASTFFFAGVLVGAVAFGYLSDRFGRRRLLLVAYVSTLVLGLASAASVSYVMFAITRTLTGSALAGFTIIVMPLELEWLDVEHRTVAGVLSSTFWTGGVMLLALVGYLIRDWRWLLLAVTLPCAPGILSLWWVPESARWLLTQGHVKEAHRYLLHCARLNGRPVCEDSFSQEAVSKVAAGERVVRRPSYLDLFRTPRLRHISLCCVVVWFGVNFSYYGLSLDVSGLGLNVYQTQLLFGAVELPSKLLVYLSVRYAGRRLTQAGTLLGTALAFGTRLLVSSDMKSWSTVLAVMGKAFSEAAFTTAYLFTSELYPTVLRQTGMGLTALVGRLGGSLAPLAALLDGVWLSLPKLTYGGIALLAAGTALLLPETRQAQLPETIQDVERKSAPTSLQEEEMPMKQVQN
Method: (§1) All experiments examining cellular radiolabeled compound uptake were conducted using cells grown to confluence in 24-well flat bottom plates. The transport solution consisted of WB (room temperature) containing radiolabeled compound and the uptake period for all experiments was at an initial rate time point of 5 min. [^3H]Penciclovir served as the probe OAT2 substrate. We also examined the uptake of [^3H]para-aminohippurate, [^3H]estrone-3-sulfate, [^14C]glutarate, [^14C]succinate, [^3H]paclitaxel, and [^3H]dehydroepiandrosterone sulfate by OAT2 since published studies indicate that they are substrates of the transport protein ([Sun et al., 2001]; [Kobayashi et al., 2005a]). […] For all cellular uptake experiments, the medium was aspirated and the cells were rinsed once with WB (0.3 ml). Following the uptake period, cells were washed three times with ice-cold WB (0.5 ml each wash). After aspirating the final wash the cells were lysed in 0.5 N NaOH/1% SDS (0.4 ml) for ∼30 min on an orbital shaker. 1 N HCl (0.2 ml) was then added to neutralize the NaOH, and the cell lysates (0.5 ml) were transferred to scintillation vials containing liquid scintillation cocktail (CytoScint ES, MP Biomedicals). Cellular radioactivity content was determined with a Beckman LS6500 liquid scintillation counter. Protein content was determined using the bicinchoninic acid method. See the Figure and Table Legends for additional details describing the experimental conditions used.
The concentration of each Kreb’s cycle intermediate was 1 mM. Uptake was conducted for 5 min.

OAT2-tv3 = test system: OAT2-tv3; set-up: method as in Sato et al., 2010; conditions: OAT2-tv3 in HEK293 cells; ref Sato et al., 2010; cited from earlier work
OAT2-tv1 [2] = molecular target: T1, OAT2-tv1; conditions: cited from earlier work
[3] = test system: OAT2 with an unidentified sequence; conditions: cited from earlier work
OAT2-tv2 [4] = molecular target: T2, OAT2-tv2 (Homo sapiens, UniProt Q9Y694); assay: Cellular uptake of radiolabeled compounds by CHO, HEK or MDCK cells stably expressing OAT2-tv2; type: cell-based; set-up: The open reading frame of the human ortholog of OAT2 transcript variant 2 (OAT2-tv2) containing 548 amino acids was amplified from a construct obtained from Origene; host or cells: CHO, HEK and MDCK Flp-In cells; conditions: HEK- and MDCK-OAT2-tv2 cells, penciclovir 0.1/0.5 μM, para-aminohippurate 8 nM, estrone-3-sulfate 10 nM, glutarate 18 μM, 5 min
T2 sequence (Q9Y694 1-548): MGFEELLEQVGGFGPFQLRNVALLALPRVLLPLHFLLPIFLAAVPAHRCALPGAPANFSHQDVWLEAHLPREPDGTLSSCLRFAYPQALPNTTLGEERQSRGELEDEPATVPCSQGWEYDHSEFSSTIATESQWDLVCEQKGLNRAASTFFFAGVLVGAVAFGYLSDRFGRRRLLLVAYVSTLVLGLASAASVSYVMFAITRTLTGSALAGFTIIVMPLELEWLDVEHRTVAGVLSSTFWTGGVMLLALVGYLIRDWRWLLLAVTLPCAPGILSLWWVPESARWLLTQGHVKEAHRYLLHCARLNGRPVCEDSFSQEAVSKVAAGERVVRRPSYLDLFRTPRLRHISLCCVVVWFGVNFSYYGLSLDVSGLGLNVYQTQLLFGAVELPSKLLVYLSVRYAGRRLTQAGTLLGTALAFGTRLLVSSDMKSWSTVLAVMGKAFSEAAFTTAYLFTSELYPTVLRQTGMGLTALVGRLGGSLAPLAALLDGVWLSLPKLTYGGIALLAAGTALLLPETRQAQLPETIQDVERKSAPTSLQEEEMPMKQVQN
Method: [^3H]Penciclovir served as the probe OAT2 substrate. […] Protein content was determined using the bicinchoninic acid method.
Uptake was conducted for 5 min at room temperature.

OAT2-tv1 [5] = molecular target: T1, OAT2-tv1; assay: Cellular uptake of radiolabeled compounds by CHO, HEK or MDCK cells stably expressing OAT2-tv1; conditions: for uptake compared to respective parental cells: CHO-, HEK- and MDCK-OAT2-tv1 cells, para-aminohippurate 8 nM, estrone-3-sulfate 10 nM, glutarate 18 μM
Method: as §1
FIGURE 2 Cellular accumulation of [^3H]penciclovir (A), [^3H]para-aminohippurate (B), [^3H]estrone-3-sulfate (C), or [^14C]glutarate (D) by parental CHO, HEK, or MDCK cells, or CHO, HEK, or MDCK cells stably expressing either OAT2-tv1 or OAT2-tv2. The concentration of [^3H]penciclovir in the transport solution was 0.1 μM for CHO and MDCK cell experiments, and 0.5 μM for HEK cell experiments. The concentrations of [^3H]para-aminohippurate, [^3H]estrone-3-sulfate and [^14C]glutarate were 8 nM, 10 nM, and 18 μM, respectively. Uptake was conducted for 5 min at room temperature.
FIGURE 4 Cellular accumulation of [^14C]succinate (18.5 μM) by CHO parental cells, CHO-OAT2-tv1 cells or CHO cells stably expressing the Na-dicarboxylate cotransporter 3 (NaDC3). Uptake was conducted for 5 min. Values are the mean ± standard error of the mean of four experiments for CHO parental and CHO-OAT2-tv1 cells. A single uptake experiment was performed with CHO-NaDC3 cells.

OAT2-tv2 [6] = molecular target: T2, OAT2-tv2; set-up: method as in Kobayashi et al., 2005a; conditions: OAT2-tv2 in Xenopus oocytes pre-loaded with 5 mM compound; ref Kobayashi et al., 2005a; cited from earlier work
CHO parental cells = assay: Cellular accumulation of radiolabeled compounds in CHO parental cells; type: cell-based, Chinese hamster; conditions: [3H]dehydroepiandrosterone sulfate 12 nM, [3H]paclitaxel 22 nM, n = 3
[7] = IC50, inhibition of [3H]penciclovir uptake by CHO-OAT2-tv1 cells
[8] = inhibition of [3H]penciclovir uptake by CHO-OAT2-tv1 cells, read-out: IC50

% Inhibition (OAT2-tv1 [1]) [%]	IC50 (OAT2-tv1 [1]; [8])	SMILES	also measured
53	–	Nc1ccn(C[C@@H](CO)OCP(=O)(O)O)c(=O)n1 [Cidofovir]	–
95	57 µM and 57.2 µM	CN/C(=N/CCSCc1nc[nH]c1C)NC#N [Cimetidine]	inhibition of OAT2 ([3]; ref Khamdang et al., 2004): no inhibition
–	–	O=C(O)C[C@@H](O)C(=O)O [D-malate]	cis-inhibition of penciclovir uptake (OAT2-tv1 [1]): none of the Kreb’s cycle intermediates tested, including succinate and fumarate, cis-inhibited penciclovir uptake
65	12 ± 5.4 µM	CC[C@H]1OC(=O)[C@H](C)[C@@H](O[C@H]2C[C@@](C)(OC)[C@@H](O)[C@H](C)O2)[C@H](C)[C@@H](O[C@@H]2O[C@H](C)C[C@H](N(C)C)[C@H]2O)[C@](C)(O)C[C@@H](C)C(=O)[C@H](C)[C@@H](O)[C@]1(C)O [Erythromycin]	–
90	–	NS(=O)(=O)c1cc(C(=O)O)c(NCc2ccco2)cc1Cl [Furosemide]	IC50 ([3]; ref Hasannejad et al., 2004): 603 µM
99	–	COc1ccc2c(c1)c(CC(=O)O)c(C)n2C(=O)c1ccc(Cl)cc1 [Indomethacin]	IC50 ([3]; ref Khamdang et al., 2002): 64.1 µM
76	–	CN(Cc1cnc2nc(N)nc(N)c2n1)c1ccc(C(=O)N[C@@H](CCC(=O)O)C(=O)O)cc1 [Methotrexate]	–
85	78.4 ± 8.2 µM	Nc1nc2c(ncn2CCC(CO)CO)c(=O)[nH]1 [Penciclovir]	uptake compared to respective parental cells (OAT2-tv2 [4]): not different from uptake into the respective parental cells; uptake of penciclovir, fold higher compared to parental cells (OAT2-tv1 [5]; CHO-OAT2-tv1 cells, [3H]penciclovir 0.1 μM, 5 min): 21 fold; uptake of penciclovir, fold higher compared to parental cells (OAT2-tv1 [5]; HEK-OAT2-tv1 cells, [3H]penciclovir 0.5 μM, 5 min): 39 fold; uptake of penciclovir, fold higher compared to parental cells (OAT2-tv1 [5]; MDCK-OAT2-tv1 cells, [3H]penciclovir 0.1 μM, 5 min): 5 fold; substrate of OAT2-tv1 (OAT2-tv1 [2]; ref Cheng et al., 2012): clearly substrates of OAT2-tv1
64	–	CCCN(CCC)S(=O)(=O)c1ccc(C(=O)O)cc1 [Probenecid]	–
96	26.8 ± 2.4 µM	CCCCC[C@H](O)/C=C/[C@H]1[C@H](O)CC(=O)[C@@H]1C/C=C\CCCC(=O)O [Prostaglandin E2]	–
99	30 ± 3.6 µM	CCOc1cc(CC(=O)N[C@@H](CC(C)C)c2ccccc2N2CCCCC2)ccc1C(=O)O [Repaglinide]	–
96	17.1 ± 1.3 µM	CCCc1nc2c(C)cc(-c3nc4ccccc4n3C)cc2n1Cc1ccc(-c2ccccc2C(=O)O)cc1 [Telmisartan]	–
–	–	O=C(O)/C=C/C(=O)O [fumarate]	cis-inhibition of penciclovir uptake (OAT2-tv1 [1]): none of the Kreb’s cycle intermediates tested, including succinate and fumarate, cis-inhibited penciclovir uptake; stimulation of estrone-3-sulfate uptake by pre-loading (OAT2-tv2 [6]): 1.7 fold
–	–	Nc1nc(O)c2ncn(COC(CO)CO)c2n1 [ganciclovir]	substrate of OAT2-tv1 (OAT2-tv1 [2]; ref Cheng et al., 2012): clearly substrates of OAT2-tv1
–	–	O=C(O)CCCC(=O)O [glutarate]	uptake compared to respective parental cells (OAT2-tv2 [4]): not different than uptake into the respective parental cells; uptake compared to respective parental cells (OAT2-tv1 [5]; 5 min): not different than uptake into the respective parental cells
–	–	O=C(O)CC(=O)C(=O)O [oxaloacetate]	cis-inhibition of penciclovir uptake (OAT2-tv1 [1]): none of the Kreb’s cycle intermediates tested, including succinate and fumarate, cis-inhibited penciclovir uptake
–	–	CC(=O)O[C@H]1C(=O)[C@@]2(C)[C@H]([C@H](OC(=O)c3ccccc3)[C@]3(O)C[C@H](OC(=O)[C@H](O)[C@@H](NC(=O)c4ccccc4)c4ccccc4)C(C)=C1C3(C)C)[C@]1(OC(C)=O)CO[C@@H]1C[C@@H]2O [paclitaxel]	cellular accumulation (CHO parental cells): 89 ± 3.8 fmoles ⋅ mg protein^-1 ⋅ min^-1; cellular accumulation (OAT2-tv1 [5]; 5 min, 22 nM): 90 ± 5.1 fmoles ⋅ mg protein^-1 ⋅ min^-1; mediated transport by OAT2-tv1 (OAT2-tv1 [5]; expressed in CHO cells): unable to show mediated transport
99	210 µM	Nc1ccc(C(=O)NCC(=O)O)cc1 [para-aminohippurate]	uptake compared to respective parental cells (OAT2-tv2 [4]): not different than uptake into the respective parental cells; uptake compared to respective parental cells (OAT2-tv1 [5]; 5 min): not different than uptake into the respective parental cells; uptake by HEK-OAT2-tv1 cells (OAT2-tv1 [2]; ref Cropp et al., 2008): failed to observe appreciable uptake

SMILES	% Inhibition (OAT2-tv1 [1]) [%]	IC50 (OAT2-tv1 [1]; [8])	also measured
Oc1ncnc2[nH]ncc12 [Allopurinol]	95	–	IC50 (OAT2-tv1 [1]; [7]): 70 µM and 70.1 µM; inhibition of uric acid transport (OAT2-tv3): did not inhibit uric acid transport; substrate of OAT2-tv1 (OAT2-tv1 [2]; ref Cropp et al., 2008): substrate
C[C@]12CC[C@@H]3c4ccc(OS(=O)(=O)O)cc4CC[C@H]3[C@@H]1CCC2=O [Estrone Sulfate]	95	36.1 ± 3.9 µM	uptake compared to respective parental cells (OAT2-tv2 [4]): not different than uptake into the respective parental cells; uptake compared to respective parental cells (OAT2-tv1 [5]; 5 min): not different than uptake into the respective parental cells
CC[N+](CC)(CC)CC [Tetraethylammonium]	42	54.3 ± 33 µM	–
CCCCC[N+](CCCCC)(CCCCC)CCCCC [Tetrapentylammonium]	49	–	IC50 (OAT2-tv1 [1]; [7]): 279 ± 142 µM
CCCCC(=O)N(Cc1ccc(-c2ccccc2-c2nnn[nH]2)cc1)[C@H](C(=O)O)C(C)C [Valsartan]	86	127 ± 29 µM	–
